Test results reported in ChEMBL document CHEMBL5050844 (2019).
pIC50, pKd: −log10 of the molar value.

What was measured:
[1] = molecular target: T1, E3 ubiquitin-protein ligase CBL-B (Homo sapiens, UniProt Q13191); assay: Inhibition of N-terminal Avi-tagged human CBL-B (36 to 427 residues) incubated with 60 nM Src kinase for 1.5 hrs followed by incubation with fluorescently labeled UbcH5B-Ub for 1 hr and measured by TR-FRET assay; type: single protein
[2] = molecular target: T1, E3 ubiquitin-protein ligase CBL-B; assay: Binding affinity towards N-terminal biotinylated Avi-tagged human CBL-B (36 to 427 residues) measured by surface plasmon resonance assay
[3] = Induction of anti-CD3/CD28 antibodies-stimulated human T cell activation at 4 uM assessed fold increase in IL-2 secretion measured by ELISA assay; type: functional, T cell line
[4] = Induction of anti-CD3/CD28 antibodies-stimulated human T cell activation at 1 uM assessed fold increase in IL-2 secretion measured by ELISA assay; type: functional, T cell line
[5] = Induction of anti-CD3/CD28 antibodies-stimulated human T cell activation at 0.3 uM assessed fold increase in IL-2 secretion measured by ELISA assay; type: functional, T cell line
[6] = Induction of anti-CD3 antibodies-stimulated human T cell activation at 8 uM assessed fold increase in IL-2 secretion measured by ELISA assay; type: functional, T cell line; further: reference of the scale not given here
[7] = Induction of anti-CD3 antibodies-stimulated human T cell activation at 1 uM assessed fold increase in IL-2 secretion measured by ELISA assay; type: functional, T cell line; further: reference of the scale not given here
[8] = Induction of anti-CD3/CD28 antibodies-stimulated human T cell activation at 4 uM assessed fold increase in CD25 expression measured by ELISA assay; type: functional, T cell line
[9] = Induction of anti-CD3/CD28 antibodies-stimulated human T cell activation at 1 uM assessed fold increase in CD25 expression measured by ELISA assay; type: functional, T cell line
[10] = Induction of anti-CD3/CD28 antibodies-stimulated human T cell activation at 0.3 uM assessed fold increase in CD25 expression measured by ELISA assay; type: functional, T cell line
[11] = Induction of anti-CD3 antibodies-stimulated human T cell activation at 8 uM assessed fold increase in CD25 expression measured by ELISA assay; type: functional, T cell line; further: reference of the scale not given here
[12] = Induction of anti-CD3 antibodies-stimulated human T cell activation at 1 uM assessed fold increase in CD25 expression measured by ELISA assay; type: functional, T cell line; further: reference of the scale not given here

T1 sequence (Q13191 whole entry, the tested form may be a part): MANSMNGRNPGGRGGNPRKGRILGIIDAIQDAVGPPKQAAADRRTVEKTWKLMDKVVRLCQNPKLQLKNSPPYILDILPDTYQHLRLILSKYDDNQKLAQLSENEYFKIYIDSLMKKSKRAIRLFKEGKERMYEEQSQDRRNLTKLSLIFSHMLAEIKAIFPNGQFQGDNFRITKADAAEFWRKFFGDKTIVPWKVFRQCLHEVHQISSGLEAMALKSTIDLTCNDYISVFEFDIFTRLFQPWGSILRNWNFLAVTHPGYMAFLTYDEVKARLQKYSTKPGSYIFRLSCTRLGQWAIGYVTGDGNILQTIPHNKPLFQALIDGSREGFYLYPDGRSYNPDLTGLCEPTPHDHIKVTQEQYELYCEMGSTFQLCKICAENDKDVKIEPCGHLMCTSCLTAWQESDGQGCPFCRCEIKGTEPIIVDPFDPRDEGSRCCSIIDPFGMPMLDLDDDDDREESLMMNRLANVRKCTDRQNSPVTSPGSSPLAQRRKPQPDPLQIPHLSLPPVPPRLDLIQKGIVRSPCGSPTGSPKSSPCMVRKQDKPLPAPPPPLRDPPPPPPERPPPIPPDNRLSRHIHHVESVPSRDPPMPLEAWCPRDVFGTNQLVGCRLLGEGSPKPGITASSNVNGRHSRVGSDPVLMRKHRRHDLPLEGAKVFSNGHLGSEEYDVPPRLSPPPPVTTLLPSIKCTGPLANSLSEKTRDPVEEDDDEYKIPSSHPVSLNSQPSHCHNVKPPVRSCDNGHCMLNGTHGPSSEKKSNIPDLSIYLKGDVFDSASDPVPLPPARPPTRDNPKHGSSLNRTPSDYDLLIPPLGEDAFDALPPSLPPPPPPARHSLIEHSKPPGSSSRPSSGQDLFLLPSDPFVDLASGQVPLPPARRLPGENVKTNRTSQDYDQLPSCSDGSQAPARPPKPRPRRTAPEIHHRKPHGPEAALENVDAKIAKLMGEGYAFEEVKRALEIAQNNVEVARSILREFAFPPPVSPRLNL

pIC50 [1] | pKd [2] | SMILES | fold change (FC) [3] | fold change (FC) [4] | fold change (FC) [5] | fold change (FC) [6] | fold change (FC) [7] | fold change (FC) [8] | fold change (FC) [9] | fold change (FC) [10] | fold change (FC) [11] | fold change (FC) [12]
> 7.00 | > 7.00 | C[C@H](Cc1nncn1C)c1cccc(N2Cc3c(cc(C(=O)N4CC[C@H](O)C4)cc3C(F)(F)F)C2=O)c1 | >=7.5 | 2.51 | 1.01 | >=0.201 | 0.151 | 1.31 | 1.01 | 1.01 | >=1.001 | 0.801
> 7.00 | > 7.00 | C[C@H](Cc1nncn1C)c1cccc(N2Cc3c(cc(CN4CC(O)C(F)(F)C4)cc3C(F)(F)F)C2=O)c1 (stereo partly drawn) | >=7.5 | 5 | 2.51 | >=0.201 | 0.101 | 1.31 | 1.31 | 1.01 | >=1.001 | >=1.001
> 7.00 | > 7.00 | C[C@H](Cc1nncn1C)c1cccc(N2Cc3c(cc(C(=O)N4C[C@@H](O)C[C@H]4C)cc3C(F)(F)F)C2=O)c1.O=C(O)C(F)(F)F | >=7.5 | 5 | 2.51 | >=0.201 | >=0.201 | >=1.76 | 1.51 | 1.31 | >=1.001 | 0.801
> 7.00 | > 7.00 | C[C@H](Cc1nncn1C)c1cccc(N2Cc3c(cc(N[C@H]4CCNC4)cc3C(F)(F)F)C2=O)c1 | 2.51 | 2.51 | 1.01 | 0.151 | 0.101 | 1.01 | 1.01 | 1.01 | >=1.001 | 0.801
> 7.00 | > 7.00 | CC1C=NN=C1C[C@@H](C)c1cccc(N2Cc3c(cc(C(=O)N4C[C@@H](O)C[C@H]4C)cc3C(F)(F)F)C2=O)c1 (stereo partly drawn) | >=7.5 | 2.51 | 1.01 | >=0.201 | 0.151 | 1.31 | 1.01 | 1.01 | >=1.001 | >=1.001
> 7.00 | > 7.00 | Cn1cnnc1C(F)(F)[C@](C)(F)c1cccc(N2Cc3c(cc(CN4CC[C@H](S(C)(=O)=O)C4)cc3C(F)(F)F)C2=O)c1 | >=7.5 | 2.51 | 2.51 | >=0.201 | 0.101 | 1.01 | 1.01 | 1.01 | >=1.001 | 0.801
> 7.00 | > 7.00 | C[C@H](Cc1nncn1C)c1cccc(N2Cc3c(cc(CN4CC[C@@H](F)C4)cc3C(F)(F)F)C2=O)c1 | >=7.5 | >=7.5 | 5 | >=0.201 | >=0.201 | 1.31 | 1.01 | 1.01 | >=1.001 | >=1.001
> 7.00 | > 7.00 | Cc1[nH]ncc1-c1cc2c(c(C(F)(F)F)c1)CN(c1cccc([C@H](C)Cc3nncn3C)c1)C2=O | >=7.5 | 5 | 2.51 | >=0.201 | 0.151 | 1.51 | 1.51 | 1.31 | >=1.001 | 0.801
> 7.00 | > 7.00 | C[C@H](Cc1nncn1C)c1cccc(N2Cc3c(cc(CO)cc3C(F)(F)F)C2=O)c1 | >=7.5 | 5 | 2.51 | >=0.201 | 0.151 | 1.31 | 1.01 | 1.01 | >=1.001 | >=1.001
